Values quoted from earlier work in patent US20240277651A1, “MIXED GLYCEROL ESTER COMPOSITION” (priority 2021, published 2024).

System: pathogenic, gram-positive bacteria
Conditions: Skrivanova et al, Veterinarni Medicina, 51, 2006

For `CCCCCCCCCCCC(=O)OCC(O)CO` (stereo not shown) [monolaurin], the “Inhibitory action on pathogenic, gram-positive bacteria” value is listed as “inhibitory action”.
